From ChEMBL document CHEMBL4610081, “Anti-inflammatory Metabolites from Chaetomium nigricolor” (J Nat Prod, 2020)

Legend:
[1] = system: RAW264.7; assay: Trans-suppression of NFkappaB in mouse RAW264.7 cells assessed as LPS-induced IKB-apha degradation at 10 uM preincubated for 3 hrs followed by LPS-stimulation and measured after 1 hr by Western blot analysis (reference value: 0.29); assay type: cell-based
[2] = system: RAW264.7; assay: Trans-suppression of NFkappaB in mouse RAW264.7 cells assessed as LPS-induced nuclear-p50 level at 5 uM preincubated for 3 hrs followed by LPS-stimulation and measured after 1 hr by Western blot analysis (reference value: 3.2); assay type: cell-based
[3] = system: RAW264.7; assay: Inhibition of LPS-induced JNK protein expression in mouse RAW264.7 cell at 10 uM preincubated for 3 hrs followed by LPS-stimulation and measured after 1 hr by Western blot analysis (reference value: 1.21); assay type: functional
[4] = system: RAW264.7; assay: Antiinflammatory activity against mouse RAW264.7 cells assessed as reduction in LPS-induced IL-1beta mRNA expression preincubated for 3 hrs followed by LPS-stimulation and measured after 12 hrs by RT-PCR analysis; assay type: functional, cell-based
[5] = system: RAW264.7; assay: Inhibition of LPS-induced ERK protein expression in mouse RAW264.7 cell at 5 uM preincubated for 3 hrs followed by LPS-stimulation and measured after 1 hr by Western blot analysis (reference value: 1.13); assay type: functional
[6] = system: RAW264.7; assay: Antiinflammatory activity against mouse RAW264.7 cells assessed as LPS-induced COX-2 mRNA expression at 2.5 uM preincubated for 3 hrs followed by LPS-stimulation and measured after 24 hrs by RT-PCR analysis (reference value: 14.39); assay type: functional
[7] = system: RAW264.7; assay: Trans-suppression of NFkappaB in mouse RAW264.7 cells assessed as LPS-induced cytosol-p65 level at 10 uM preincubated for 3 hrs followed by LPS-stimulation and measured after 1 hr by Western blot analysis (reference value: 0.09); assay type: cell-based
[8] = system: RAW264.7; assay: Antiinflammatory activity against mouse RAW264.7 cells assessed as inhibition of LPS-induced PGE2 production preincubated for 3 hrs followed by LPS-stimulation and measured after 24 hrs by ELISA; assay type: functional, cell-based
[9] = system: RAW264.7; assay: Trans-suppression of NFkappaB in mouse RAW264.7 cells assessed as LPS-induced cytosol-p50 level at 5 uM preincubated for 3 hrs followed by LPS-stimulation and measured after 1 hr by Western blot analysis (reference value: 0.28); assay type: cell-based
[10] = system: RAW264.7; assay: Inhibition of LPS-induced JNK protein expression in mouse RAW264.7 cell at 2.5 uM preincubated for 3 hrs followed by LPS-stimulation and measured after 1 hr by Western blot analysis (reference value: 1.21); assay type: functional
[11] = system: RAW264.7; assay: Antiinflammatory activity against mouse RAW264.7 cells assessed as inhibition of LPS-induced NO production preincubated for 3 hrs followed by LPS-stimulation and measured after 24 hrs by Griess reagent based assay; assay type: functional, cell-based
[12] = system: RAW264.7; assay: Antiinflammatory activity against mouse RAW264.7 cells assessed as LPS-induced COX-2 mRNA expression at 5 uM preincubated for 3 hrs followed by LPS-stimulation and measured after 24 hrs by RT-PCR analysis (reference value: 14.39); assay type: functional
[13] = system: RAW264.7; assay: Trans-suppression of NFkappaB in mouse RAW264.7 cells assessed as LPS-induced IKB-apha phosphorylation at 2.5 uM preincubated for 3 hrs followed by LPS-stimulation and measured after 1 hr by Western blot analysis (reference value: 6.04); assay type: cell-based
[14] = system: RAW264.7; assay: Inhibition of LPS-induced JNK phosphorylation in mouse RAW264.7 cell at 2.5 uM preincubated for 3 hrs followed by LPS-stimulation and measured after 1 hr by Western blot analysis (reference value: 8.88); assay type: cell-based
[15] = system: RAW264.7; assay: Inhibition of LPS-induced ERK phosphorylation in mouse RAW264.7 cell at 2.5 uM preincubated for 3 hrs followed by LPS-stimulation and measured after 1 hr by Western blot analysis (reference value: 6.92); assay type: cell-based
[16] = system: RAW264.7; assay: Trans-suppression of NFkappaB in mouse RAW264.7 cells assessed as LPS-induced nuclear-p65 level at 5 uM preincubated for 3 hrs followed by LPS-stimulation and measured after 1 hr by Western blot analysis (reference value: 3.3); assay type: cell-based
[17] = system: RAW264.7; assay: Trans-suppression of NFkappaB in mouse RAW264.7 cells assessed as LPS-induced nuclear-p50 level at 10 uM preincubated for 3 hrs followed by LPS-stimulation and measured after 1 hr by Western blot analysis (reference value: 3.2); assay type: cell-based
[18] = system: RAW264.7; assay: Trans-suppression of NFkappaB in mouse RAW264.7 cells assessed as LPS-induced IKB-apha phosphorylation at 5 uM preincubated for 3 hrs followed by LPS-stimulation and measured after 1 hr by Western blot analysis (reference value: 6.04); assay type: cell-based
[19] = system: RAW264.7; assay: Inhibition of LPS-induced ERK protein expression in mouse RAW264.7 cell at 10 uM preincubated for 3 hrs followed by LPS-stimulation and measured after 1 hr by Western blot analysis (reference value: 1.13); assay type: functional
[20] = system: RAW264.7; assay: Trans-suppression of NFkappaB in mouse RAW264.7 cells assessed as LPS-induced nuclear-p50 level at 2.5 uM preincubated for 3 hrs followed by LPS-stimulation and measured after 1 hr by Western blot analysis (reference value: 3.2); assay type: cell-based
[21] = biological target: MAP kinase p38 (Mus musculus) (UniProt P47811+O08911+Q9WUI1+Q9Z1B7); assay: Inhibition of LPS-induced p38 MAPK phosphorylation in mouse RAW264.7 cell at 5 uM preincubated for 3 hrs followed by LPS-stimulation and measured after 1 hr by Western blot analysis (reference value: 5.59); assay type: cell-based
[22] = system: RAW264.7; assay: Inhibition of LPS-induced ERK protein expression in mouse RAW264.7 cell at 2.5 uM preincubated for 3 hrs followed by LPS-stimulation and measured after 1 hr by Western blot analysis (reference value: 1.13); assay type: functional
[23] = system: RAW264.7; assay: Antiinflammatory activity against mouse RAW264.7 cells assessed as LPS-induced INOS mRNA expression at 5 uM preincubated for 3 hrs followed by LPS-stimulation and measured after 24 hrs by RT-PCR analysis (reference value: 8.2); assay type: functional
[24] = system: RAW264.7; assay: Inhibition of LPS-induced JNK phosphorylation in mouse RAW264.7 cell at 5 uM preincubated for 3 hrs followed by LPS-stimulation and measured after 1 hr by Western blot analysis (reference value: 8.88); assay type: cell-based
[25] = system: RAW264.7; assay: Trans-suppression of NFkappaB in mouse RAW264.7 cells assessed as LPS-induced IKB-apha degradation at 2.5 uM preincubated for 3 hrs followed by LPS-stimulation and measured after 1 hr by Western blot analysis (reference value: 0.29); assay type: cell-based

For `COc1cc(OC)c2c(O)c3c(=O)cc(C)oc3c(-c3c(O)cc4cc(O)c5c(=O)cc(C)oc5c4c3OC)c2c1` (atropisomer aS) [ASPERPYRONE A], the fold change (FC) [1] was 0.81, the fold change (FC) [2] was 1.28 and the “fold change (FC)” value [3] was 1.19. For the same compound, the Activity [4] was “Dose-dependent effect”, the “fold change (FC)” value [5] was 1.09 and the “fold change (FC)” value [6] was 12.92. The fold change (FC) [7] was 1.04, the inhibition [8] was “Dose-dependent effect” and the fold change (FC) [9] was 0.87. For the same compound, the “fold change (FC)” value [10] was 1.12, the Activity [11] was “Dose-dependent effect” and the IC50 [11] was 8.6 µM. The “fold change (FC)” value [12] was 7.56, the fold change (FC) [13] was 2.93 and the fold change (FC) [14] was 8.73. It also gave a fold change (FC) [15] of 7.21, a fold change (FC) [16] of 2.57 and a fold change (FC) [17] of 0.89. For the same compound, the fold change (FC) [18] was 3.21, the “fold change (FC)” value [19] was 1.1 and the fold change (FC) [20] was 1.99. The fold change (FC) [21] was 5.63, the “fold change (FC)” value [22] was 1.08 and the “fold change (FC)” value [23] was 2.62. The fold change (FC) [24] was 4.02 and the fold change (FC) [25] was 0.31.
